Where “and” joins values, the source holds several entries; their conditions need not be identical. Equal entries are not always repeated. Strand notation (5' to 3'): a small letter for the sugar, then the base; units joined by * are phosphorothioate-linked, units joined directly phosphodiester-linked; [ ] holds rarer units or linkages, { } end groups; capitals alone tell only the bases. e = 2'-O-(2-methoxyethyl) (MOE); l = locked nucleic acid (LNA); k = constrained ethyl (cEt); [5mC] = 5-methylcytosine; d = 2'-deoxy (DNA)
Key:
[1] = test system: collagen 1A1 and collagen 3A1 expression in kidney, unilateral ureteral obstruction (UUO) model; experiment: UUO model of kidney fibrosis: kidney collagen 1A1 and collagen 3A1 expression by real-time PCR; type: in vivo, mice; settings: for Collagen 1A1 (Normalized Expression), individual animal / Collagen 3A1 (Normalized Expression), individual animal: UUO, 20 mg/kg at days -3, -1, +5 (prophylactic), kidney at day 11, real-time PCR normalized to GAPDH then sham, 20 mg/kg; for reduction in collagen expression (in words): meta-analysis of repeated UUO studies, 20 mg/kg at days -3, -1, +5
Method: Unilateral ureteral obstruction (UUO) is a well-established experimental model of renal injury leading to interstitial fibrosis, and thus is used as an experimental model that is reflective of human kidney disease. UUO is induced by surgically ligating a single ureter. As fibrosis is characterized by an increase in collagen, the presence and extent of kidney fibrosis may be determined by measuring collagen content. Both collagen 1A1 (Col 1A1) and collagen 3A1 (Col 3A1) are measured to assess collagen content. Kidney fibrosis may be visualized by staining tissue samples with picro-sirius red to detect increases in collagen content. Kidney fibrosis may also be observed by measuring the amount of hydroxyproline, which is a major component of collagen, in a sample.
The cEt-containing anti-miR-21 compounds found to be active in the luciferase assay were tested in the UUO model of kidney fibrosis. 25919 comprising 2′-MOE and 2′-fluoro modifications is known to inhibit miR-21 activity in vivo and was included as a positive control. Groups of 8 animals each were treated as follows: UUO only, UUO with PBS, or UUO with anti-miR-21 compound. Relative to the day of the UUO procedure, PBS or anti-miR-21 compound was administered at days −3, −1, and +5. Anti-miR-21 compounds were administered at a dose of 20 mg/kg. As the anti-miR compounds were administered prior to the UUO procedure, this dosing regimen is considered a prophylactic treatment. At day 11, animals were sacrificed and kidney was isolated for measurement of collagen expression. Collagen expression was measured by real-time PCR and normalized first to GAPDH and then to the sham control animals. […]

[2] = test system: miR-21; experiment: miR-21 luciferase sensor assay in Hela cells; type: cell-based; settings: for luciferase value normalized to beta-galactosidase activity / inhibition of miR-21 in the luciferase assay (in words): Hela cells
Method: The compounds were assessed for miR-21 inhibitory activity in a luciferase assay. A microRNA luciferase sensor construct was engineered using pGL3-MCS2 (Promega). The construct was introduced into Hela cells to test the ability of anti-miR compounds to inhibit activity of miR-21. In this assay, miR-21 present in the Hela cells binds to its cognate site(s) in the luciferase sensor construct, and suppresses luciferase expression. When the appropriate anti-miR is introduced into the cells, it binds to miR-21 and relieves suppression of luciferase expression. Thus, in this assay anti-miRs that are effective inhibitors of miR-21 expression will cause an increase in luciferase expression.
Day 1: Hela cells (ATCC), stably transfected with a luciferase construct engineered to contain a sequence complementary of miR-21, were seeded in T-170 flasks (BD Falcon) at 3.5*10^6 cells/flask. Hela cells were grown in Dulbecco's Modified Eagle Medium with High Glucose (Invitrogen).
Day 2: Each flask of Hela cells was transfected with 0.5 ug of a phRL sensor plasmid (Promega) expressing Renilla to be used in normalization. Hela cells were transfected using 20 ul Lipofectamine 2000/flask (Invitrogen). After 4 hours of transfection, cells were washed with PBS and trypsinized. Hela cells were plated at 40 k/well in 24 well plates (BD Falcon) and left overnight.
Day 3: Hela cells were transfected with anti-miRs using Lipofectin (Invitrogen) at 2.5 ul Lipofectin/100 nM ASO/ml Opti-MEM I Reduced Serum Medium (Invitrogen) for 4 hours. After ASO transfection, Hela cells were refed with Dulbecco's Modified Eagle Medium with High Glucose (Invitrogen).
Day 4: Hela cells are passively lysed and luciferase activity measured using the Dual-Luciferase Reporter Assay System (Promega).
The luciferase assay was performed to test the ability of anti-miRs with the nucleoside patterns described herein to inhibit the activity of miR-21. Results were compared to a ‘mock’ treatment, in which cells received no anti-miR treatment. The experiment was repeated and results of two experimental replicates are shown in the following Table B, as the luciferase value normalized to beta-galactosidase activity.
The luciferase assay was performed as described herein to test the ability of anti-miRs in Table F to inhibit the activity of miR-21. Results were compared to a ‘mock’ treatment, in which cells received no anti-miR treatment. The experiment was repeated and results of two experimental replicates are shown in the following Table D, as fold change in luciferase value relative to the mock treatment.

[3] = 4 nM oligonucleotide, mock transfection 50
[4] = 20 nM oligonucleotide, mock transfection 47
[5] = .16 nM oligonucleotide, mock transfection 45
[6] = .8 nM oligonucleotide, mock transfection 33
[7] = concentration of anti-miR compound 0.2 (unit not given)
[8] = concentration of anti-miR compound 0.6 (unit not given)
[9] = concentration of anti-miR compound 1.9 (unit not given)
[10] = concentration of anti-miR compound 5.6 (unit not given)
[11] = concentration of anti-miR compound 16.7 (unit not given)
[12] = concentration of anti-miR compound 50.0 (unit not given)
[13] = 100 nM oligonucleotide, mock transfection 40
[14] = 500 nM oligonucleotide, mock transfection 39

Compound | luciferase value normalized to beta-galactosidase activity [2, 3] | luciferase value normalized to beta-galactosidase activity [2, 4] | luciferase value normalized to beta-galactosidase activity [2, 5] | luciferase value normalized to beta-galactosidase activity [2, 6] | inhibition of miR-21 in the luciferase assay (in words) [2] | fold change in luciferase value relative to the mock treatment [2, 7] | fold change in luciferase value relative to the mock treatment [2, 8] | fold change in luciferase value relative to the mock treatment [2, 9] | fold change in luciferase value relative to the mock treatment [2, 10] | fold change in luciferase value relative to the mock treatment [2, 11] | fold change in luciferase value relative to the mock treatment [2, 12] | luciferase value normalized to beta-galactosidase activity [2, 13] | luciferase value normalized to beta-galactosidase activity [2, 14] | further results
CCCCC1=NC2(CCCC2)C(=O)N1Cc1ccc(-c2ccccc2-c2nnn[nH]2)cc1 [irbesartan, reference compound] | – | – | – | – | – | – | – | – | – | – | – | – | – | reduction in Col3a1 expression (in words) ([1]; UUO comparison with irbesartan, 25070 s.c. 20 mg/kg days -5, -2, +3, irbesartan perorally daily days 0-7, day 10): statistically significant reductions; reduction in Col1A1 expression relative to saline-treated animals (in words) ([1]; UUO comparison with irbesartan, 25070 s.c. 20 mg/kg days -5, -2, +3, irbesartan perorally daily days 0-7, day 10, p<0.05 one-way ANOVA): did not yield a statistically significant reduction
AECSAETECSAEGETECSTEGEAEUSAEAEGECSTEAE (ACATCAGTCTGATAAGCTA; S-cEt/2'-MOE, phosphorothioate, chemistry not fully specified) [Compound 25072] | 76 | 86 | 40 | 49 | demonstrated inhibition of miR-21 in a dose-dependent manner | – | – | – | – | – | – | – | – | Collagen 1A1 (Normalized Expression), individual animal [1]: 96.2 and 85.7 and 127.4 and 100.0 and 159.2 and 120.5 and 108.0; Collagen 3A1 (Normalized Expression), individual animal [1]: 69.4 and 54.5 and 58.8 and 69.2 and 93.8 and 65.8 and 46.9; reduction in collagen expression (in words) [1]: did not consistently demonstrate a reduction in collagen expression
AE^MeCLAETE^MeCLAEGETE^MeCLTEGEAE^MeTLAEAEGE^MeCLTEAE (antisense eA*l[5mC]*eA*eT*l[5mC]*eA*eG*eT*l[5mC]*eT*eG*eA*lT*eA*eA*eG*l[5mC]*eT*eA) [Compound 25117, LNA variant: each non-bicyclic nucleoside is 2'-MOE, each cytosine 5-methyl cytosine] | – | – | – | – | – | 1.05 | 1.15 | 1.14 | 3.64 | 7.36 | 2.91 | – | – | –
AE^MeCSAETE^MeCSAEGETE^MeCSTEGEAE^MeTSAEAEGE^MeCSTEAE (antisense eA*k[5mC]*eA*eT*k[5mC]*eA*eG*eT*k[5mC]*eT*eG*eA*kT*eA*eA*eG*k[5mC]*eT*eA; further chemistry not given here) [Compound 25116, 25070 variant: each non-bicyclic nucleoside is 2'-MOE, each cytosine 5-methyl cytosine] | – | – | – | – | – | 1.06 | 0.98 | 1.06 | 2.47 | 5.64 | 1.98 | – | – | –
AE^MeCSAT^MeCSAGT^MeCSTGATSAAG^MeCSTAE (antisense ACATCAGTCTGATAAGCTA; modified nucleosides coded in name, code key not given here) [Compound 25922, 25070 variant: each cytosine is a 5-methyl cytosine] | – | – | – | – | demonstrated inhibition of miR-21 in a dose-dependent manner | 1.02 | 1.10 | 1.34 | 8.81 | 11.60 | 11.46 | – | – | –
AE^MeCSAT^MeCSAGT^MeCSTGATSAAG^MeCSTAS (antisense eA*k[5mC]*dA*dT*k[5mC]*dA*dG*dT*k[5mC]*dT*dG*dA*kT*dA*dA*dG*k[5mC]*dT*kA) [Compound 25924, 25070 variant: 3'-terminal cEt nucleoside and each cytosine is a 5-methyl cytosine] | – | – | – | – | demonstrated inhibition of miR-21 in a dose-dependent manner | 1.10 | 1.25 | 1.37 | 7.80 | 13.01 | 8.99 | – | – | –
AeTe^MeCeASGSTe^MeCeTeGSASTeAeASGS^MeCeTeAe [Compound 25077] | 45 | 33 | 34 | 33 | – | – | – | – | – | – | – | 42 | 40 | –
AeTe^MeCeAeGeTe^MeCeTeGSAsTeASASGe^MeCeUSAS [Compound 25731] | 32 | 39 | 34 | 45 | – | – | – | – | – | – | – | 38 | 59 | –
Ae^MeCAST^MeCAGST^MeCTGASTASAGS^MeCTAe (ACATCAGTCTGATAAGCTA; all C 5-methyl, all phosphorothioate, sugars by position not given here; further chemistry not fully specified) [Compound 25071] | 50 | 63 | 48 | 36 | – | – | – | – | – | – | – | 53 | 42 | –
TE^MeCAACSATCSAGTCSTGAUSAAGCSTAE (TCAACATCAGTCTGATAAGCTA; listed as DNA, chemistry not fully specified) [Compound 25082] | – | – | 70 | 89 | demonstrated inhibition of miR-21 in a dose-dependent manner | – | – | – | – | – | – | – | – | Collagen 1A1 (Normalized Expression), individual animal [1]: 122.2 and 188.3 and 102.5 and 67.6 and 40.6 and 44.1 and 73.8 and 94.7; Collagen 3A1 (Normalized Expression), individual animal [1]: 62.9 and 78.9 and 82.2 and 43.8 and 32.6 and 34.3 and 75.8 and 62.5; reduction in collagen expression (in words) [1]: did not consistently demonstrate a reduction in collagen expression
Te^MeCASA^MeCAST^MeCAGST^MeCTGASTAAGS^MeCTAe (antisense TCAACATCAGTCTGATAAGCTA; all C 5-methyl, all phosphorothioate, sugars by position not given here; further chemistry not fully specified) [Compound 25067] | 43 | 41 | 38 | 23 | – | – | – | – | – | – | – | 30 | 42 | –

— patent US9790496B2, “Microrna compounds and methods for modulating MIR-21 activity” (Regulus Therapeutics, Inc., priority 2011, dated 2017)
